These are literature values, as cited in patent publication US8028928B2, “Spreader apparatus for sand based formulations” (priority 2007, dated 2011).

The series concerns S. homoeocarpa. Conditions: bent grass blend Cato:Crenshaw (50:50); high disease pressure.

Take `CSC(=O)c1cccc2nnsc12` [ASM, acibenzolar-5-methyl]: the “Reduction of number of S. homoeocarpa infection centers” value is 38%.
